The term microsomal CLint denotes the rate of metabolic loss divided by the concentration. As usually defined, the IC50 is the concentration needed to halve the response being measured. One may read the inhibition as the drop in the measured response relative to a control, in per cent.

The text below walks through data of patent US11564920B2, “5-heteroaryl-1H-pyrazol-3-amine derivative” (Sumitomo Pharma Co., Ltd., priority 2020, dated 2023).

“Also recorded” adds a separate entry of the source. Bounds are passed on as bounds.

One data set has as its target MARK3 (Homo sapiens (Human), UniProt P27448). As to the kind of experiment: Kinase selectivity test (HotSpot Full Panel Kinase profiling). Type of data set: biochemical. The conditions noted are these: 100 nM, ATP 10 μM; read-out: Residual activity (%) MARK3. As for the experimental part:
(§1) Buffer: 20 mM HEPES, pH 7.5, 10 mM MgCl2, 2 mM […] (as needed), 1 mM EGTA, 0.02% Brij35, 0.02 mg/mL BSA, 0.1 mM Na3VO4, 2 mM DTT, 1% DMSO
(§2) Compound concentration: 100 nM

The target in another data set is BRSK2 (Homo sapiens (Human), UniProt Q8IWQ3). The data set is described as above. The data set is classed as biochemical. The conditions noted are these: 100 nM, ATP 10 μM; read-out: Residual activity (%) BRSK2. As to the method: as §1, §2
In another data set the target is ARKS/NUAK1 (Homo sapiens (Human), UniProt O60285). The description is as above. The conditions noted are these: 100 nM, ATP 10 μM; read-out: Residual activity (%) ARKS/NUAK1. Type of data set: biochemical. As for the experimental part:
as §1, §2

The target of another data set is LOK/STK10 (Homo sapiens (Human), UniProt O94804). The description is as above. The data set is classed as biochemical. The following applies: 100 nM, ATP 10 μM; read-out: Residual activity (%) LOK/STK10. As to the method: as §1, §2
The next data set has as its target CAMK2D (Homo sapiens (Human), UniProt Q13557). Described as above. The data set is classed as biochemical. The conditions noted are these: 100 nM, ATP 10 μM; read-out: Residual activity (%) CAMK2D. As for the experimental part:
as §1, §2

The target in the next data set is MARK2/PAR-1BA (Homo sapiens (Human), UniProt Q7KZI7). The data set is described as above. The data set is classed as biochemical. The conditions noted are these: 100 nM, ATP 10 μM; read-out: Residual activity (%) MARK2/PAR-1BA (PAR-18A in Table 33). As for the experimental part:
as §1, §2

A further data set concerns the target CDK8/CYCLIN C (Homo sapiens (Human), UniProt P49336). The data set is described as above. The data set is classed as biochemical. The following applies: 100 nM, ATP 10 μM; read-out: Residual activity (%) CDK8/CYCLIN C. As for the experimental part: as §1, §2
The next data set addresses MARK1 (Homo sapiens (Human), UniProt Q9P0L2). The data set is described as above. The conditions noted are these: 100 nM, ATP 10 μM; read-out: Residual activity (%) MARK1. Type of data set: biochemical. As for the experimental part: as §1, §2
The target in another data set is BRSK1 (Homo sapiens (Human), UniProt Q8TDC3). Described as above. The data set is classed as biochemical. The conditions noted are these: 100 nM, ATP 10 μM; read-out: Residual activity (%) BRSK1. As to the method:
as §1, §2

The next data set has as its target CHK2 (Homo sapiens (Human), UniProt O96017). The data set is described as above. The conditions noted are these: 100 nM, ATP 10 μM; read-out: Residual activity (%) CHK2. The data set is classed as biochemical. As to the method:
as §1, §2

The next data set deals with CYP3A4 (Homo sapiens (Human), UniProt P08684). As to the kind of experiment: CYP3A4 MBI and enzyme inactivation clearance evaluation. Type of data set: in vitro ADME. The following applies: human liver microsome. As for the experimental part:
The effect and mode of inhibition of the test compound on CYP3A4 were evaluated using a human liver microsome as an enzyme source and midazolam or testosterone as a substrate. […] The IC50 value was calculated from a concentration plot.
(In general: Liver microsomes are a subcellular fraction often used to study metabolism.)

For the next data set, the target named is CDK19/CYCLIN C (Homo sapiens (Human), UniProt Q9BWU1). As to the kind of experiment: Kinase selectivity test (HotSpot Full Panel Kinase profiling). Type of data set: biochemical. The following applies: 100 nM, ATP 10 μM; read-out: Residual activity (%) CDK19/CYCLIN C. As to the method:
as §1
(§3) ATP conversion rate in 2 hours: 5 to 20%
as §2

The target of the next data set is MEK5 (Homo sapiens (Human), UniProt Q13163). The data set is described as above. Type of data set: biochemical. The following applies: 100 nM, ATP 10 μM; read-out: Residual activity (%) MEK5. As to the method:
as §1, §3, §2

The test system of data set [1] is Human bone marrow CD34 positive hematopoietic stem cells. The experiment in a line: Human bone marrow cell colony formation test (hemotoxicological evaluation test). Type of data set: cell-based. The conditions noted are these: 100 nM; for Colony count (/well), mean: 48 hours, then about 2 weeks culture. As for the experimental part: Human bone marrow CD34 positive hematopoietic stem cells were obtained from Lonza K. K. The frozen cells were thawed in a medium prepared by mixing a Methocult Express medium and a 10% fetal bovine serum with 1% penicillin/streptomycin containing RPMI 1640 medium at 9:1. 5000 cells were seeded per well in a 6 well plate and cultured overnight at […] in the presence of 5% CO2. The evaluated compound was added so that the final concentration of DMSO would be 0.1% and 100 nM, and the cells were cultured for 48 hours. The cells were retrieved and washed with PBS. ⅙ of the amount of cells was seeded in a 12 well plate and cultured for about. 2 weeks at 37° C. in the presence of 5% CO2. After completion of culture, the number of colonies formed was calculated using Thiazolyl blue tetrazolium bromide (MTT).

Data set [2] concerns the target T1, CHK1 (Homo sapiens (Human), UniProt O14757). The experiment in a line: Kinase selectivity test (HotSpot Full Panel Kinase profiling). Type of data set: biochemical. The conditions noted are these: 100 nM, ATP 10 μM; read-out: Residual activity (%) CHK1. As for the experimental part:
as §1, §2

Data set [3] addresses T1, CHK1. As to the kind of experiment: CHK1/CHK2 selectivity test (LabChip mobility shift). The following applies: read-out: IC50 value with respect to CHK1. The data set is classed as biochemical.
Data set [4] concerns the target T2, hERG current (Homo sapiens (Human), UniProt Q12809). As to the kind of experiment: cell-based.
Experimental: (§4) The test compounds were added to cultured hERG (human Ether-a-go-go Related Gene) gene stably expressing CHO cell line cells to achieve 0.27 to 100 μM.
Data set [5] addresses T1, CHK1. As to the kind of experiment: CHK1 inhibitory activity test (IMAP TR-FRET). Type of data set: biochemical.
The target in data set [6] is T2, hERG current. As to the kind of experiment: hERG current blocking test. The following applies: IC50 of hERG divided by IC50 of CHK1 inhibition of Test Example 1. In general terms: hERG is a cardiac potassium channel; its block is linked to QT prolongation.
Experimental: as §4

T1 sequence (O14757 whole entry): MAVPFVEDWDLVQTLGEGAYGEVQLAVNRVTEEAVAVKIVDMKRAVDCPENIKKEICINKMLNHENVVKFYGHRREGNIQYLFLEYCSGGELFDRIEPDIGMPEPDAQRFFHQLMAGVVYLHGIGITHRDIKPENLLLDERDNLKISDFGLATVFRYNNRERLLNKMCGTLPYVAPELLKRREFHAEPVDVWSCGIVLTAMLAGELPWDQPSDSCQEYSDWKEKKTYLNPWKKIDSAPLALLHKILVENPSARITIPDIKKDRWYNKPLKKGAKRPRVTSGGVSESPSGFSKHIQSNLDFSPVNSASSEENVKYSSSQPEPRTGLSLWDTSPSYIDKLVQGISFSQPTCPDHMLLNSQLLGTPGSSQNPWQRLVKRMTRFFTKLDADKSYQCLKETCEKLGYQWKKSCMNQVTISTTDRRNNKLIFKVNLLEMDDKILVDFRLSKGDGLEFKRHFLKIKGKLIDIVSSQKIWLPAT
Chain of CYP3A4 (P08684 whole entry): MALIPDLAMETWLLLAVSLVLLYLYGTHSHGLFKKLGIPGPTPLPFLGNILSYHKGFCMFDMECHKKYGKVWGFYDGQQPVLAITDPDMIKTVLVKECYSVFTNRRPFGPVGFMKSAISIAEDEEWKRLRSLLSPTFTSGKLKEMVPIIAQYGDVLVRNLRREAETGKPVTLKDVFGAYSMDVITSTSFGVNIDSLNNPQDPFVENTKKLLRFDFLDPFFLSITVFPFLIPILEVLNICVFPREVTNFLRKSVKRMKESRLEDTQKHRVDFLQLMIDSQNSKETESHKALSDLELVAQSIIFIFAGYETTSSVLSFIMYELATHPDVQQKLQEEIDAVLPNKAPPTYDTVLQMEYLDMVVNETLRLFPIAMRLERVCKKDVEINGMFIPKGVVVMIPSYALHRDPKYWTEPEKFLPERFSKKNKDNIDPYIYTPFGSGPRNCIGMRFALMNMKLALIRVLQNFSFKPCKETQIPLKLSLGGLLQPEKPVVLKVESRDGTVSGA
T2 sequence (Q12809 whole entry): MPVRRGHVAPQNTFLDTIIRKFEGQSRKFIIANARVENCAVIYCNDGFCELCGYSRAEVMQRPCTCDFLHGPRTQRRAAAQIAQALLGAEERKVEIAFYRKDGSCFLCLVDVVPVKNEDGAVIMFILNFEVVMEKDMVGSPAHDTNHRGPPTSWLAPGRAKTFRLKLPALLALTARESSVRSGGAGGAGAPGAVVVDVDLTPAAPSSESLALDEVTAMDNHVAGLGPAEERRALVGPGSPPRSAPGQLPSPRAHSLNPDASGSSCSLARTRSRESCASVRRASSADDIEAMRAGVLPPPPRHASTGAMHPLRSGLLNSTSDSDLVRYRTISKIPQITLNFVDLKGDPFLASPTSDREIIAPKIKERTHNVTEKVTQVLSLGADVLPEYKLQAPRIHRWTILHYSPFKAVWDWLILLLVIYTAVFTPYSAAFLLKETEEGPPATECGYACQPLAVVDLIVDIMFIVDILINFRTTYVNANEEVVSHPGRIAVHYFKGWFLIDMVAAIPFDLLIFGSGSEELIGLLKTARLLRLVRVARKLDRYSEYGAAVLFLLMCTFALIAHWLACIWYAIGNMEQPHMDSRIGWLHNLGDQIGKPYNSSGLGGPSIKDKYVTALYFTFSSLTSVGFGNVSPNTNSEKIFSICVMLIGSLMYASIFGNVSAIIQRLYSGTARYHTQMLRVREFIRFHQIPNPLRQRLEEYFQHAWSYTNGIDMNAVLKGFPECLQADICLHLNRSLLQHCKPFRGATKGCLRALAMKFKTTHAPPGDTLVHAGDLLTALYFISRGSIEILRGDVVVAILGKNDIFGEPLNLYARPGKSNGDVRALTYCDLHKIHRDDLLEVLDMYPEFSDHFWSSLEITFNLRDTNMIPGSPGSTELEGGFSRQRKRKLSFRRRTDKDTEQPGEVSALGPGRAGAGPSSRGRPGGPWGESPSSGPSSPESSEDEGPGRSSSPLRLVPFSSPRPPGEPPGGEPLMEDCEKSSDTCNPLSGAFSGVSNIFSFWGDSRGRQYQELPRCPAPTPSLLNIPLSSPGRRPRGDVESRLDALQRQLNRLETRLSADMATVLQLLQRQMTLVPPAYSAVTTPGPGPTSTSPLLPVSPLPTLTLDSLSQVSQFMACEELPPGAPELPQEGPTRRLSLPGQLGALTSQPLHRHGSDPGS
Chain of CDK8/CYCLIN C (P49336 whole entry): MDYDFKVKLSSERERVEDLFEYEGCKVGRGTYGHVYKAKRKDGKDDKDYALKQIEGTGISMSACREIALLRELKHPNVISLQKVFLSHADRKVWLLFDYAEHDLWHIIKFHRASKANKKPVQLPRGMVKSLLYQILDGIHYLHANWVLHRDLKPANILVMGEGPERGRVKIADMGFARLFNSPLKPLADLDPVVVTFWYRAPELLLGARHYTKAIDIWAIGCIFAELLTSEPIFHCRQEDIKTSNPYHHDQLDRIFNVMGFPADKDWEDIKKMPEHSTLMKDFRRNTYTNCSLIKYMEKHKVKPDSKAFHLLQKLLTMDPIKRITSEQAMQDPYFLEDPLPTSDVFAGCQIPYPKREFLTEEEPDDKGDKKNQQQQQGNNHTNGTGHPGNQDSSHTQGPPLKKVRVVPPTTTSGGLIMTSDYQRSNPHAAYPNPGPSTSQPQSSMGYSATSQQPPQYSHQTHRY
Chain of CDK8/CYCLIN C (P24863 whole entry partner): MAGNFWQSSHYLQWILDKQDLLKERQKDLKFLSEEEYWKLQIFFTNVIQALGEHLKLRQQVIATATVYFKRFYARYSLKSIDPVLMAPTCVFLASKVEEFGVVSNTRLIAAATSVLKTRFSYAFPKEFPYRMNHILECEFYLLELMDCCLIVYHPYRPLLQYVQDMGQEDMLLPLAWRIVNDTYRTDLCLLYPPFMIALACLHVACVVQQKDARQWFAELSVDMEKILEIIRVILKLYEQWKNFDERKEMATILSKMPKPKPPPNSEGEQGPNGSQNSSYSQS
Chain of CDK19/CYCLIN C (Q9BWU1 whole entry): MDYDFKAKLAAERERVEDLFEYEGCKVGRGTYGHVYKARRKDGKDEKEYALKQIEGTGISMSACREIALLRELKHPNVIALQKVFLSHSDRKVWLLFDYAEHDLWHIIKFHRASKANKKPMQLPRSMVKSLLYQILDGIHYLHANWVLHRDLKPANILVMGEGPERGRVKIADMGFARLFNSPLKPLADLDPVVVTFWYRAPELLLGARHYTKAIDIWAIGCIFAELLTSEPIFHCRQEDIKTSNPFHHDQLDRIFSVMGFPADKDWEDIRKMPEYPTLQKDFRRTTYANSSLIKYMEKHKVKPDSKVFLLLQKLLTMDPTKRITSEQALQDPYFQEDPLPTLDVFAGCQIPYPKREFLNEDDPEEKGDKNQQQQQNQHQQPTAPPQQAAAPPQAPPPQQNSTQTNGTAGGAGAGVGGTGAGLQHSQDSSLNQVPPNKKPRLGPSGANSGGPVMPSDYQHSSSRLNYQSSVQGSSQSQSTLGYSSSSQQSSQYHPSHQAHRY
Chain of CDK19/CYCLIN C (P24863 whole entry partner): as the sequence (P24863 whole entry partner) above
Chain of MARK1 (Q9P0L2 whole entry): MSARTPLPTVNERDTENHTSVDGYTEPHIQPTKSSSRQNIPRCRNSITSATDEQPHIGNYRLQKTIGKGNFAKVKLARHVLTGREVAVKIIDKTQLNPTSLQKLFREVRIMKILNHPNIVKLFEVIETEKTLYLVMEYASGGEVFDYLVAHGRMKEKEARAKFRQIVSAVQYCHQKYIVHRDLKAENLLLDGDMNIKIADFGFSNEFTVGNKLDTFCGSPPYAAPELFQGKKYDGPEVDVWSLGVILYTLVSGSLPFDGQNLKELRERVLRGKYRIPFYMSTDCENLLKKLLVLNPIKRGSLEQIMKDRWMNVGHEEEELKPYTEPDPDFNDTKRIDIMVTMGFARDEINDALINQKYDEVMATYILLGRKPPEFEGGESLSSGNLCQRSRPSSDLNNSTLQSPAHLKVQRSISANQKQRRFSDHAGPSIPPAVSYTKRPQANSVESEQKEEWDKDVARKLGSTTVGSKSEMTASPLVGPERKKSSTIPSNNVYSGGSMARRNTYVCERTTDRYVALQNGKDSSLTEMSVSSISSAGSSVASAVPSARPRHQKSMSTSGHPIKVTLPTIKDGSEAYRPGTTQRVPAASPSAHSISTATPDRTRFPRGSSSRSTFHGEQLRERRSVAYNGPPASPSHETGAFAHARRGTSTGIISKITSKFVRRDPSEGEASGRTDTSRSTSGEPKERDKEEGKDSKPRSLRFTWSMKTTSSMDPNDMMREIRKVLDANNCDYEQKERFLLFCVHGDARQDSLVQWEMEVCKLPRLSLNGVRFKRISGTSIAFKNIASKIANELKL
Chain of MARK3 (P27448 whole entry): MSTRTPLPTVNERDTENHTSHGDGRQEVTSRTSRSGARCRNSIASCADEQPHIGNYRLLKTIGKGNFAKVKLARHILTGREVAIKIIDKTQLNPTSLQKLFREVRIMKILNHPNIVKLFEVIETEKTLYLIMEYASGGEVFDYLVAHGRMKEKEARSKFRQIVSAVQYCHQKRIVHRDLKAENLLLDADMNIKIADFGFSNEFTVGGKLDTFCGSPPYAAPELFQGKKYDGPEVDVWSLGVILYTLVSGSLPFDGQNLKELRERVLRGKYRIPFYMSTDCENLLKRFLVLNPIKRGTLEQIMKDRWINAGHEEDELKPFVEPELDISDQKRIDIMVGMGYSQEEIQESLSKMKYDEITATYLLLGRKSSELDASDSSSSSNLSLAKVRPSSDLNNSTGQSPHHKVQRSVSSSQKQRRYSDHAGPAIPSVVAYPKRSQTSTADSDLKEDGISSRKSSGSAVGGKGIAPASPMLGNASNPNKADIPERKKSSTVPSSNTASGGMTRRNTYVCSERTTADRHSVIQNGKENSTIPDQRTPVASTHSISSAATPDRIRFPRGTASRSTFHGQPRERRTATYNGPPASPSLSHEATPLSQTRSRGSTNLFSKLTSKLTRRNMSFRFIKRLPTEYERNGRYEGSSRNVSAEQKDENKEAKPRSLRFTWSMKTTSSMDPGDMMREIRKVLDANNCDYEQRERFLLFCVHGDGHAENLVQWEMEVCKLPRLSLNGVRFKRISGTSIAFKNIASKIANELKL

For `COc1cccc(OCCCN)c1-c1cc(Nc2cnc(C#N)cn2)n[nH]1` [Prexasertib, reference compound], the remaining activity at 0.1 µM amounted to 12.6% on MARK3; 14.4% at BRSK2; 17.9% on ARKS/NUAK1; 6.15% on LOK/STK10; 6.07% at CAMK2D; 14.3% on MARK2/PAR-1BA. The remaining activity at 0.1 µM on CDK8/CYCLIN C stood at 18.1%; at MARK1 it was 14.1%; on BRSK1, 21.7%; at CHK2 it was 6.41%; on CDK19/CYCLIN C, 19.9%; on MEK5, 10.7%. Also, at CYP3A4, the “inhibition of CYP3A4 based on MBI (in words)” value is reported as “exhibits inhibition of CYP3A4 based on MBI”. The same compound registered a microsomal CLint on CYP3A4 (liver microsomes, probe midazolam or testosterone) of 0.019 µL/min/mg. Moreover, in data set [1], the “effect on human bone marrow cell colony formation (in words)” value was “exhibits an effect of suppressing human bone marrow cell colony formation”. Moreover, the “Colony count (/well), mean” value in data set [1] is listed as 19 /well.
As to `COc1ccnc(OCCCN)c1-c1cc(Nc2cnc(C#N)cn2)n[nH]1` [Example 1, 5-({5-[2-(3-aminopropoxy)-4-methoxypyridin-3-yl]-1H-pyrazol-3-yl}amino)pyrazine-2-carbonitrile], the remaining activity at 0.1 µM on CHK1 [2] is 2.87%. Also, the IC50 at CHK1 [3] is below 0.0003 µM; against hERG current [4], 11.5 µM; against CHK1 [5], below 0.0001 µM. Moreover, on CYP3A4 (by pre-incubation with NADPH, MBI action when 2-fold or greater), the “Factor of change in IC50 value” is “Not Detected”. On CYP3A4, the “inhibition of CYP3A4 based on MBI (in words)” value is listed as “do not exhibit inhibition of CYP3A4 based on MBI”. Moreover, the “CHK1 inhibitory activity relative to prexasertib” value at CHK1 [5] is reported as at least 5 fold. In addition, on CHK1 [5] (compared with prexasertib), the “effect of suppressing CHK1 activity (in words)” value is recorded as “more potent effect of suppressing CHK1 activity than prexasertib; also recorded: especially potently suppressing CHK1 activity”. In addition, at CHK1 [5] (read-out: CHK1 inhibition % at 0.1 nM), the inhibition at 0.0001 µM was 55%. Also, the hERG/CHK1 at hERG current [6] is listed as above 115000. The “effect on human bone marrow cell colony formation (in words)” value in data set [1] is reported as “does not exhibit an effect of suppressing human bone marrow colony formation”. The “Colony count (/well), mean” value in data set [1] was 34 /well.
